Data on 4 molecules can be found in patent US11103562B2, “Composition comprising alkaline phosphatase for use in the treatment of arthritides” (AMRIF BV, priority 2017, dated 2021).

Entries after “also recorded” stand apart in the source; their conditions may differ.

Data set [1] has as its system ED1+ and ED2+ synovial macrophages. In words: Synovial macrophage infiltration (ED1/ED2 immunohistochemistry) in knees of rats with mBSA antigen-induced arthritis. In kind it is in vivo, rat. As for the experimental part: (§1) Experiments were performed using a rat model for RA as published by Chandruputla et al. (BioMed Int, 2015) to show the effects of recombinant human alkaline phosphatase (hRESCAP) on RA. hRESCAP was compared with MTX used as a positive control. The antigen-induced rat model uses two subcutaneous immunizations with a mixture of methylated bovine serum albumin (mBSA), CFA (complete Freund's adjuvant antigen) and CBP (custom Bordetella pertussis antigen) and intra-articular injections of mBSA on one side knee and saline (negative control) on the counter knee. Immunohistochemical (IHC) analysis specifically focussed on infiltration with macrophages and knee swelling is followed over time after therapeutic treatment with MTX, or hRESCAP.
(§2) In the rat model, RA is induced in the right knee (RA knee), the contralateral left knee serves as a internal control (control knee). The model allows various options for therapeutic interventions, either before intra-articular injections or during boosts injections with mBSA. Two hours prior to AP administration, rats received a dose of levamisole (50 mg/kg, s.c.). For comparison, arthritic rats received treatment with methotrexate (1 mg/kg, i.p.).
At the end of the experiment, rats were sacrificed and knees were decalcified and processed for IHC analysis of synovial macrophage infiltration, including 2 rat macrophage antibodies; ED1 (homolog of human CD68) and ED2 (homolog of human CD163, a proposed marker for human M2 anti-inflammatory macrophages). IHC analysis of ED1 and ED2 macrophages was performed in multiple quadrants of synovial tissue, as described by Chandruputla et al (BioMed Int, 2015). Macrophage counting included synovial lining layer (SL 1-10) and synovial sublining layers (SL 1-20).
(§3) All rats (except healthy) were immunized and arthritis was induced via 1× or 4× intra-articular (i.a) mBSA injections, 4 or 5 days apart in the arthritic (right) knee, the contralateral (left, non-arthritic) knee serving as control knee. For therapeutic interventions, AP (human recombinant placenta AP, TNO, Zeist, The Netherlands) was administered subcutaneously (s.c.) at a dose of 700 U/kg (≈200 μg), MTX (VU University Medical Centers' Pharmacy) was administered intra-peritoneal (i.p.) at two dosages: 0.3 mg/kg (low dose) and 1.0 mg/kg (high dose). The rats were divided in 8 groups, based on different treatments and treatment schedules. In a prophylactic setting, two rats received AP twice prior to intra-articular (i.a.) arthritis induction and four rats received AP twice prior to intra-articular and 4× PBS in between i.a. injections. In the treatment groups, arthritic rats were administered AP twice or 4× after arthritis induction, either as standalone therapy or in combination with low or high dose MTX. Control rats received 500 μL of PBS (i.p.). […] At the end of study, all rats were sacrificed and tissues were excised for further processing and various analyses.
The arthritic and contralateral knees from all rats were dissected in toto and fixed for 7 days at 4° C. in 10% freshly made paraformaldehyde in PBS with 2% sucrose (pH=7.3) prior to decalcification in osteosoft (101728, Merck, Germany) for ˜2.5 weeks at room temperature. Thereafter, knees were embedded in paraffin. Sections of 5 μm were cut through the centre of the joint in longitudinal direction and stained with haematoxylin and eosin (HE) to assess the degree of inflammation in synovial tissue. Liver and spleen sections from all rats were dissected and fixed in 4% paraformaldehyde for 24 h before embedding in paraffin. Sections of 5 μm were cut and stained initially with HE and then for macrophages Staining for macrophages with ED1 (homologous to human CD68), and ED2 (homologous to human CD163, a marker for M2 anti-inflammatory macrophages), or isotype control antibody was performed. Images were captured using a Leica 4000B microscope and Leica digital camera DC500 (Microsystems B. V. Rijswijk, The Netherlands). […]

The next data set deals with arthritic rats. In words: Knee swelling in rats with mBSA antigen-induced arthritis. In kind it is in vivo, rat. Here is the method: as §1, §2, §3
A short description of data set [2]: Tolerability of therapeutic interventions in arthritic rats. In kind it is in vivo. Here is the method: as §3
Another data set relates to macrophages. The settings on record: rat, in vivo.
For data set [3] the following is noted: cited from earlier work; for plasma residence time: in vivo.

For the molecule `CN(Cc1cnc2nc(N)nc(N)c2n1)c1ccc(C(=O)N[C@@H](CCC(=O)O)C(=O)O)cc1` [MTX, Methotrexate, reference compound], in data set [1] (MTX 0.3 mg/kg versus 1.0 mg/kg), the “effect of the two MTX doses on the number of ED1 macrophages in the arthritic knee” value was “identical effect”. The “ED1+ synovial macrophage infiltration in arthritic knee (in words)” value in data set [1] (therapeutic treatment, 4× after first i.a. and in between boosts, AP 700 U/kg, MTX 1 mg/kg) was “even more reduced macrophage ED1+ counts; also recorded: very much reduced”. In the data set with arthritic rats (prophylactic and therapeutic AP treatment or MTX treatment, versus positive control), the “swelling of the mBSA-injected right knee” value is “Reduced swelling”. The “swelling of the non-treated left knee” value in the data set with arthritic rats (versus positive control treatment) is “swelling is reduced”. In data set [2], the “changes in body weight” value is listed as “nor were significant changes in the body weight observed”.
As to “[^18F]fluoro-PEG-folate [reference compound]”, the “clearance of the tracer from plasma” value with macrophages is on record as “rapidly cleared from plasma”.

B1: intestinal isoenzyme: intestinal alkaline phosphatase isoenzyme, tissue specific ectophosphatase (protein, UniProt P09923 20-503, looked up)
Intestinal-type alkaline …: VIPAEEENPAFWNRQAAEALDAAKKLQPIQKVAKNLILFLGDGLGVPTVTATRILKGQKNGKLGPETPLAMDRFPYLALSKTYNVDRQVPDSAATATAYLCGVKANFQTIGLSAAARFNQCNTTRGNEVISVMNRAKQAGKSVGVVTTTRVQHASPAGTYAHTVNRNWYSDADMPASARQEGCQDIATQLISNMDIDVILGGGRKYMFPMGTPDPEYPADASQNGIRLDGKNLVQEWLAKHQGAWYVWNRTELMQASLDQSVTHLMGLFEPGDTKYEIHRDPTLDPSLMEMTEAALRLLSRNPRGFYLFVEGGRIDHGHHEGVAYQALTEAVMFDDAIERAGQLTSEEDTLTLVTADHSHVFSFGGYTLRGSSIFGLAPSKAQDSKAYTSILYGNGPGYVFNSGVRPDVNESESGSPDYQQQAAVPLSSETHGGEDVAVFARGPQAHLVHGVQEQSFVAHVMAFAACLEPYTACDLAPPACTTD
B1: the plasma residence time entry in data set [3] is on record as “short plasma residence time”.

B2: placental ALP: human placental alkaline phosphatase isoenzyme, fully glycosylated tissue specific ectophosphatase (native or recombinant) (protein, UniProt P05187 23-506, looked up)
Alkaline phosphatase, …: IIPVEEENPDFWNREAAEALGAAKKLQPAQTAAKNLIIFLGDGMGVSTVTAARILKGQKKDKLGPEIPLAMDRFPYVALSKTYNVDKHVPDSGATATAYLCGVKGNFQTIGLSAAARFNQCNTTRGNEVISVMNRAKKAGKSVGVVTTTRVQHASPAGTYAHTVNRNWYSDADVPASARQEGCQDIATQLISNMDIDVILGGGRKYMFRMGTPDPEYPDDYSQGGTRLDGKNLVQEWLAKRQGARYVWNRTELMQASLDPSVTHLMGLFEPGDMKYEIHRDSTLDPSLMEMTEAALRLLSRNPRGFFLFVEGGRIDHGHHESRAYRALTETIMFDDAIERAGQLTSEEDTLSLVTADHSHVFSFGGYPLRGSSIFGLAPGKARDRKAYTVLLYGNGPGYVLKDGARPDVTESESGSPEYRQQSAVPLDEETHAGEDVAVFARGPQAHLVHGVQEQTFIAHVMAFAACLEPYTACDLAPPAGTTD
B2: the plasma residence time in data set [3] was 6 to 7 days. In addition, the “half-life (T1/2) of clearance out of circulation” value in data set [3] (pregnant women) is 170 h.
